Series [1] is described as follows: Hygroscopicity (moisture microbalance). The format is physicochemical. As to conditions: 10% to 90% humidity, 25°C. The procedure:
A temperature of 25°C is maintained during all hygroscopicity measurements.

Series [2] in a line: Mechanical properties of compacts of the pure drug substance. The format is physicochemical. The procedure: The measurements of mechanical properties can be routinely accomplished using square compacts of the pure drug substance, in this case sertraline acetate and sertraline L-lactate. The measurements are made in triplicate and the compacts are prepared by uniaxial compression and triaxial decompression.
Samples for the testing of mechanical properties are prepared according to standard procedures. To generate reliable data, such samples must be free of mechanical flaws, such as microcracks. Therefore, a specialized tablet press, prepared as described in U.S. Patent No. 4,880,373, is utilized. […] The apparent density of the compact is determined by measuring the […]. […] The true density of the powder is determined by helium pycnometry. Ordinarily, to achieve the desired solid fraction, trial compactions of carefully weighed powder samples must be performed and the solid fraction of the resultant compact is measured. […]
Dynamic indentation hardness, H0, of the compacts is measured with a pendulum impact apparatus , prepared as described in U.S. Patent No. 4,885,933. […] The time required for the pendulum to pass between two photocells of given distance apart is measured and the pendulum rebound height, hr is automatically calculated. […]

The nature of series [3]: Accelerated chemical stability (reverse phase HPLC). As to conditions: same accelerated stability conditions.
The nature of series [4]: Plasma pharmacokinetics, bolus versus 15 hr divided dosing (Example 1). The format is in vivo. As to conditions: human.
For series [5], the system named is healthy male human subjects. Put plainly: Side effects by visual analogue scales and emesis (Example 1). The format is in vivo.
Series [6] can be described thus: Plasma pharmacokinetics, bolus versus 7 hr divided dosing (Example 2). As to conditions: human, fasted, mean; for AUC(0-t): po, 200 mg. It counts as in vivo.
Series [7] deals with healthy male human subjects. The series can be described thus: Side effects by visual analogue scales and emesis (Example 2). The format is in vivo.
Series [8] is described as follows: Pharmacokinetics of sertraline delivered to various portions of the gastrointestinal tract (Example 3). The format is in vivo. Conditions: for AUC(0-t): human, plasma; for AUC(0-t) / AUC as percent of the AUC observed after dosing with oral tablets: 200 mg.
Series [9] has as its system healthy male human subjects. Put plainly: Side effect score versus plasma concentration, PK/PD (Example 6). The format is in vivo.
The mark [10] stands for this setting: 200 mg single dose (Group A), two 100 mg immediate release tablets (ZOLOFT), oral, fasted, mean.
The mark [11] stands for this setting: 200 mg bolus dose group, individual subjects.
Where [12] appears, read: GROUP A (Bolus Dose) 200 mg, summed over 24 hr post-dose.
The mark [13] stands for this setting: GROUP B (16 Divided Doses) 12.5 mg hourly, summed over 24 hr post-dose.
Where [14] appears, read: 200 mg single dose, two 100 mg immediate release tablets (ZOLOFT), oral, four subjects with emesis not included.
The mark [15] stands for this setting: GROUP B (8 Divided Doses) 25 mg hourly.
Where [16] appears, read: GROUP A, Ileocecal Infusion, 200 mg as 2 mg/ml solution.
[17] abbreviates: GROUP A, Stomach Infusion, 200 mg as 2 mg/ml solution.
Where [18] appears, read: GROUP B, Colonic Infusion (transverse colon), 200 mg as 2 mg/ml solution.
Setting [19] is: GROUP B, Duodenal Infusion, 200 mg as 2 mg/ml solution.

“And” between values parts separate entries of the source, which are not always exact repeats. Equal values may be shown once.

Regarding sertraline acetate, the hygroscopicity entry in [1] was “not hygroscopic”. For the same compound, in [2], the “ductility (assessment in words)” value was “high ductility” and the “elastic modulus (assessment in words)” value is given as “relatively low elastic modulus”. The “purity of samples after stability testing” value in series [3] is reported as “greater than 99%”.
Regarding `CN[C@H]1CC[C@@H](c2ccc(Cl)c(Cl)c2)c2ccccc21.N[C@@H](CC(=O)O)C(=O)O` [sertraline L-aspartate], the hygroscopicity entry in series [1] was “not hygroscopic”. Besides, the “purity of samples after stability testing” value in series [3] is “greater than 99%”.
As to `CN[C@H]1CC[C@@H](c2ccc(Cl)c(Cl)c2)c2ccccc21` [sertraline, (1S-cis)-4-(3,4-dichlorophenyl)-1,2,3,4-tetrahydro-N-methyl-1-naphthalenamine], the exposure AUC(0-t) is 1650 ng·h/mL in [4] (setting [10]); 1230 ng·h/mL in [4] (po); 1440 ng·h/mL in series [6] (25 mg per hr for 7 hr, eight 25 mg doses as solution); 1740 ng·h/mL in [6] (200 mg single dose, two 100 mg immediate release tablets (ZOLOFT), four subjects with emesis not included); 727 ng·h/mL in series [8] (setting [16]); 923 ng·h/mL in [8] (setting [17]). Besides, the AUC(0-t) stood at 179 ng·h/mL in series [8] (setting [18]); 1270 ng·h/mL in series [8] (setting [19]); 1170 ng·h/mL in series [8] (po, GROUP A, Oral Tablet, 200 mg as two 100 mg tablets); 1150 ng·h/mL in [8] (po, GROUP B, Oral Tablet, 200 mg as two 100 mg tablets). The CMAX was determined as 74 ng/mL in [4] (setting [10]); 75 ng/mL in series [6] (setting [14]); 27.3 ng/mL in series [8] (setting [16]); 39.9 ng/mL in series [8] (GROUP A, Oral Tablet, 200 mg as two 100 mg tablets, 6 volunteers); 35.6 ng/mL in [8] (setting [17]); 10.9 ng/mL in [8] (setting [18]). The CMAX in series [8] (setting [19]) came out at 48.8 ng/mL; in series [8] (GROUP B, Oral Tablet, 200 mg as two 100 mg tablets, 6 volunteers) it was 44.7 ng/mL. The TMAX in series [4] (setting [10]) is 6 h; in series [6] (setting [14]), 5.4 h; in [8] (setting [16]), 5.0 h; in series [8] (GROUP A, Oral Tablet, 200 mg as two 100 mg tablets) it was 7.0 h; in [8] (setting [17]) it was 7.0 h; in [8] (setting [18]), 4.4 h. For the same compound, the TMAX in [8] (setting [19]) amounted to 3.7 h; in [8] (GROUP B, Oral Tablet, 200 mg as two 100 mg tablets) it was 6.7 h. The subjects with emesis result in series [5] (200 mg bolus dose group (15 subjects)) is recorded as “Three”. The time of emesis in series [5] (setting [11]) is 4.25 h and 11.2 h and 7.6 h; in [7] (setting [11]), 2.6 hr and 2.8 hr (2×) and 3.8 hr; in series [7] (7 hr divided dose regimen, one subject), 12.6 h; in series [9] (Study II, 200 mg dose group, individual subjects), 2.6 hr and 2.8 hr (2×) and 3.8 hr. The emetic episodes result in [5] (15 hr divided dose regimen (16 x 12.5 mg)) is given as “no emetic episodes”. Further, the “Mean cumulative score: Abdominal Cramping” value in series [5] (setting [12]) was determined as 3.1; in series [5] (setting [13]) it was 0.1. Moreover, the “Mean cumulative score: Diarrhea” value was determined as 3.9 in series [5] (setting [12]) and 0.2 in [5] (setting [13]). Moreover, the “Mean cumulative score: Nausea” value turned out to be 17.5 in series [5] (setting [12]) and 2.6 in [5] (setting [13]). The “Mean cumulative score: Regurgitation” value in series [5] (setting [12]) is listed as 4.0; in [5] (setting [13]), 0.3; in series [7] (GROUP A (Bolus Dose) 200 mg) it was 3.9; in [7] (setting [15]) it was 0.1. For the same compound, the “Mean cumulative score: Tremor” value in series [5] (setting [12]) came out at 7.9; in [5] (setting [13]), 1.7; in [7] (GROUP A (Bolus Dose) 200 mg), 8.9; in series [7] (setting [15]), 2.7. In addition, the “Mean cumulative score: Urgency to Defecate” value in [5] (setting [12]) came to 3.1. For the same compound, the “Mean cumulative score: Abdominal Pain” value in series [5] (GROUP A (Bolus Dose) 200 mg, visual analogue scores summed over 24 hr post-dose) was found to be 2.7; in [5] (setting [13]), 0.1. The emetic events in series [7] (7 hr divided dose group, 8 x 25 mg (n=16)) is listed as 1. In addition, the “Mean cumulative score: Dizziness” value was found to be 10.4 in series [7] (GROUP A (Bolus Dose) 200 mg) and 4.8 in series [7] (setting [15]). For the same compound, the “AUC as percent of the AUC observed after dosing with oral tablets” value in [8] (infusion into the duodenal region) was determined as 110%; in series [8] (infusion into the ileocecal region of the small intestine), 62%; in series [8] (infusion into the stomach) it was 79%; in series [8] (infusion into the transverse colon) it was 16%. Further, the “time at which the maximum diarrhea score was reached” value in [9] (Study 1, 200 mg bolus dose, post-dose) is 3 h.

These data come from EP1736150A2 (Pfizer, Inc., priority 1997, dated 1999).
